Values of other authors as cited in patent US20120093882A1 (priority 2009, published 2012).

Key:
[1] = dissolved in ultra-pure water, natural midsummer sunlight, maximum of 145 h
[2] = after oral administration

O=C(O)Cc1ccccc1Nc1c(Cl)cccc1Cl [Diclofenac]
degradation on exposure to sunlight [1]: Fast degradation | absorption [2]: almost completely absorbed | hepatic first-pass metabolism [2]: 50%
